These are literature values, as cited in patent publication US4826688A, “Controlled absorption pharmaceutical formulation” (501 Elan Corporation PLC., priority 1985, dated 1989).

Structures are written as SMILES.

As to `C=C[C@H]1C[N@@]2CC[C@H]1C[C@@H]2[C@@H](O)c1ccnc2ccc(OC)cc12` [Quinidine sulphate], for the setting “in words”, the “absorption from the gastro-intestinal tract” value is on record as “rapidly absorbed”. In addition, the “peak plasma concentrations are reached” value (quinidine sulphate, usual) is given as “about two”.

For the compound `C=C[C@H]1C[N@@]2CC[C@H]1C[C@@H]2[C@@H](O)c1ccnc2ccc(OC)cc12` [Quinidine, (+)-α-(6-methoxyquinolin-4-yl)-α-(5-vinylquinuclidin-2-yl)methanol], the “excretion in the urine” value (in words) is “almost entirely excreted in the urine”.
